The values that follow are results of earlier work, collected in patent publication US20070059740A1, “METHOD OF TARGETING A2B ADENOSINE RECEPTOR ANTAGONIST THERAPY” (priority 2005, published 2007).

This series relates to Zucker rats. As to conditions: A2B adenosine receptor antagonist, reported by LaNoue et al., U.S. Pat. No. 6,060,481.

Turning to `CCCn1c(=O)c2[nH]c(-c3ccc(C=CC(=O)O)cc3)nc2n(CCC)c1=O` [1,3-dipropyl-8-(p-acrylic)-phenylxanthine], the glucose tolerance result is reported as “improves glucose tolerance”.
